# In patent US20240034761A1, “REGENERATION OF MAMMALIAN TISSUES USING SYNTHETIC IMMODULINS” (priority 2022, published 2024):
# Marks after values point to notes of the source that are not given here. Ends that are not written are not given here. Peptide text beside a SMILES is read from it. * marks the point of attachment. Biotin = O=C1N[C@H]2[C@H](CS[C@H]2CCCCC(=O)*)N1
# Columns and labels:
# [1] = system: THP1-Dual monocyte reporter cell line; assay: THP1-Dual myeloid cell differentiation assay (PMA protocol); type: cell-based, human; conditions: PMA 24 h, then peptide 0.33 uM or 0.66 uM 24 h; for CD169+ (AU): relative to immX3AVD = 100
# Procedure: Mammalian cell differentiation assays employed the THP1-Dual monocyte reporter cell line (Invivogen Inc, San Diego, CA) seeded at 2×10e5 cells per well in 96-well plates and cultured at 37 degrees C. in RPMI-1640 growth medium plus 10% fetal bovine serum and 1% penicillin/streptomycin. Cells were subsequently treated for 24 hours with 100 ng/ml Phorbol 12-myristate 13-acetate (PMA protocol; Cayman Chemical Company, Ann Arbor, MI). Peptide (0.33 uM or 0.66 uM, as indicated) was then added, and incubation continued for an additional 24 hours. Culture supernatants were assayed for CCL22. Plates with adherent cells were washed with PBS and assayed for immunoreactivity of surface markers such as CD169, Clec9a or Clec12a using fuorescent tag- or biotin-labeled anti-human antibodies purchased from Miltenyi Biotec (Auburn, CA) and the secondary detection reagent recommended by the manufacturer.
# [2] = PIP-binding membrane assay (Membrane Lipid Strips); set-up: key: —: −−− no binding; +++ strong binding; conditions: 400 ng peptide
# Procedure: N-terminally biotinylated versions of the peptides listed below were used in various assays listed in the examples. For the two types of phosphatidylinositon phosphate (PIP)-binding assays, imm1-imm6 peptides were used.
# In the PIP-binding membrane assay, 400 ng of each peptide was bound to Membrane Lipid Strips (Catalog # P-6002, Echelon Biosciences, Salt Lake City, UT) and developed according to the manufacturer's instructions. Binding to PIPs was as follows (−−− no binding; +++ strong binding): […]
# [3] = Plate binding of FITC-labelled hyaluronic acid to immobilised biotinylated peptides; conditions: 400 ng peptide/well, 1 ug FITC-HMW-HA, PBS; normalized to immX3 peptide binding = 100
# Procedure: (§1) Effects of pH, PIP2 and size classes: Streptavidin-coated 96-well plates (G-Biosciences, St. Louis, MO) were pre-loaded with biotinylated peptides [see Example 1] at 400 ng/well, at room temperature for 60 minutes. The plate was washed with PBS buffer and then 1 ug FITC-labelled heparin or hyaluronic acid (FITC-HMW-HA) in 100 uL PBS buffer was added per well (all tests done in quadruplicate). Incubation proceeded for 90 minutes at room temperature, followed by two PBS washes. The plate was read in a standard laboratory fluorometer (488/525 nm exitation/[…]) and the counts normalized for immX3 peptide binding=100. Values statistically above background are shown in bold font. **p<0.05 versus immX3AVD.
# [4] = Plate binding of FITC-labelled heparin to immobilised biotinylated peptides; conditions: 400 ng peptide/well, 1 ug FITC-heparin, PBS; normalized to immX3 peptide binding = 100
# Procedure: as §1
# [5] = Plate assay: biotinylated peptide on streptavidin plates, FITC-labelled PIP2; type: binding; conditions: 400 ng peptide per well; for FITC-PIP2 fluorescence, Background Control: EDTA background; for FITC-PIP2 fluorescence, Ferric Iron: with ferric iron; for FITC-PIP2 fluorescence, Zinc: with zinc
# Procedure: In the plate assay, biotinylated peptides imm3 and imm5 were bound to 96-well, streptavidin-coated plates (BioLegend corporaton, San Diego, CA) at 400 ng per well in PBS buffer at room temperature for 60 mins. Plates were washed in PBS and developed with FITC-labelled PIP2 (purchased from Cayman Chemical Co, Ann Arbor, MI). Fluorescence was counted in a laboratory fluorescence spectrophotometer. The results were as follows (EDTA background set to =100; **p<0.01 vs background control): […]
# [6] = system: HFF-1 human fibroblast cell line; assay: Collagen stimulating activity in HFF-1 dermal fibroblasts (Collagen-1 ELISA); type: cell-based; conditions: peptide 2 uM, 72 hour; control (buffer) set to 100
# Procedure: Immodulin peptides have potential untility in the field of cosmetics. HFF-1 human fibroblast cell line was obtained from the American Type Culture Collection (ATCC). Cells were grown in a T-75 flask in DMEM Medium containing 10% fetal bovine serum and penicillin-streptomycin at 37° C. in a humidified, 5% CO2 incubator. Cells ([…], 2,000 cells/well) were plated in a 96-well plate and incubated overnight at 37° C. in a humidified, 5% CO2 incubator. Next day, […] of compounds were added (quadruplicate wells). After 72 hour incubation with the compound, supernatants were collected for Collagen-1 ELISA assay and cell viability was measured in a luminometer after the addition of […] CellTiterGlo reagent (Promega Inc, Madison, WI) as recommended by the manufacturer. Collagen stimulating activity of immodulin peptides in HFF-1 dermal fibroblasts: Peptides were added to cells at 2 uM. Collagen-1A1 (COL1) immunoreactivity was measured in the supernatants of cultured cells by ELISA using a rabbit monoclonal anti-COL1 primary antibody (Abcam, Cambridge, MA). Control (buffer) value of immunoreactivity was set to 100.
# [7] = target: pure recombinant CD44 protein (Abcam); assay: plate assay, pH 7.4, peptide + 10 ug/well holotransferrin + 1.5 ug/well HMW-hyaluronan (CD44 capture through HA), anti-CD44 mAb/TMB detection
# [8] = target: pure recombinant CD44 protein (Abcam); assay: plate assay, pH 5.2, peptide + 10 ug/well holotransferrin + 1.5 ug/well HMW-hyaluronan (CD44 capture through HA), anti-CD44 mAb/TMB detection
# [9] = target: pure recombinant CD44 protein (Abcam); assay: plate assay, pH 7.4, peptide + 10 ug/well holotransferrin + 10 ug/well LMW-hyaluronan (CD44 capture through HA), anti-CD44 mAb/TMB detection
# [10] = target: pure recombinant CD44 protein (Abcam); assay: plate assay, pH 5.2, peptide + 10 ug/well holotransferrin + 10 ug/well HMW-hyaluronan (CD44 capture through HA), anti-CD44 mAb/TMB detection
# [11] = target: pure recombinant CD44 protein (Abcam); assay: plate assay, pH 5.2, peptide + 10 ug/well holotransferrin + 10 ug/well LMW-hyaluronan (CD44 capture through HA), anti-CD44 mAb/TMB detection
# [12] = target: pure recombinant CD44 protein (Abcam); assay: plate assay, pH 5.2, peptide + 10 ug/well holotransferrin, no hyaluronan (CONTROL), 100 ng/well CD44, anti-CD44 mAb/TMB detection
# [13] = target: pure recombinant CD44 protein (Abcam); assay: plate assay, pH 7.4, peptide + 10 ug/well holotransferrin, no hyaluronan (CONTROL), 100 ng/well CD44, anti-CD44 mAb/TMB detection
# [14] = target: pure recombinant CD44 protein (Abcam); assay: plate assay, pH 7.4, peptide + 10 ug/well holotransferrin + 10 ug/well HMW-hyaluronan (CD44 capture through HA), anti-CD44 mAb/TMB detection
# [15] = target: pure recombinant CD44 protein (Abcam); assay: plate assay, biotin-peptide on streptavidin plate, pH 5.2, no hyaluronan (CONTROL), 100 ng/well CD44, anti-CD44 mAb/TMB detection
# [16] = target: pure recombinant CD44 protein (Abcam); assay: plate assay, pH 7.4, peptide pre-bound with 10 ug/well HMW-hyaluronan (CD44 capture through HA), anti-CD44 mAb/TMB detection
# [17] = target: pure recombinant CD44 protein (Abcam); assay: plate assay, pH 5.2, peptide pre-bound with 10 ug/well HMW-hyaluronan (CD44 capture through HA), anti-CD44 mAb/TMB detection
# [18] = target: pure recombinant CD44 protein (Abcam); assay: plate assay, pH 5.2, peptide pre-bound with 10 ug/well LMW-hyaluronan (CD44 capture through HA), anti-CD44 mAb/TMB detection
# [19] = target: pure recombinant CD44 protein (Abcam); assay: plate assay, pH 5.2, peptide pre-bound with 1.5 ug/well HMW-hyaluronan (CD44 capture through HA), anti-CD44 mAb/TMB detection; reference set to 100
# [20] = target: pure recombinant CD44 protein (Abcam); assay: plate assay, pH 7.4, peptide pre-bound with 1.5 ug/well HMW-hyaluronan (CD44 capture through HA), anti-CD44 mAb/TMB detection; reference set to 100
# [21] = target: pure recombinant CD44 protein (Abcam); assay: plate assay, pH 7.4, peptide pre-bound with 10 ug/well LMW-hyaluronan (CD44 capture through HA), anti-CD44 mAb/TMB detection
# [22] = target: pure recombinant CD44 protein (Abcam); assay: plate assay, biotin-peptide on streptavidin plate, pH 7.4, no hyaluronan (CONTROL), 100 ng/well CD44, anti-CD44 mAb/TMB detection
# pure recombinant CD44 protein (Abcam), sequence (P16070 whole entry): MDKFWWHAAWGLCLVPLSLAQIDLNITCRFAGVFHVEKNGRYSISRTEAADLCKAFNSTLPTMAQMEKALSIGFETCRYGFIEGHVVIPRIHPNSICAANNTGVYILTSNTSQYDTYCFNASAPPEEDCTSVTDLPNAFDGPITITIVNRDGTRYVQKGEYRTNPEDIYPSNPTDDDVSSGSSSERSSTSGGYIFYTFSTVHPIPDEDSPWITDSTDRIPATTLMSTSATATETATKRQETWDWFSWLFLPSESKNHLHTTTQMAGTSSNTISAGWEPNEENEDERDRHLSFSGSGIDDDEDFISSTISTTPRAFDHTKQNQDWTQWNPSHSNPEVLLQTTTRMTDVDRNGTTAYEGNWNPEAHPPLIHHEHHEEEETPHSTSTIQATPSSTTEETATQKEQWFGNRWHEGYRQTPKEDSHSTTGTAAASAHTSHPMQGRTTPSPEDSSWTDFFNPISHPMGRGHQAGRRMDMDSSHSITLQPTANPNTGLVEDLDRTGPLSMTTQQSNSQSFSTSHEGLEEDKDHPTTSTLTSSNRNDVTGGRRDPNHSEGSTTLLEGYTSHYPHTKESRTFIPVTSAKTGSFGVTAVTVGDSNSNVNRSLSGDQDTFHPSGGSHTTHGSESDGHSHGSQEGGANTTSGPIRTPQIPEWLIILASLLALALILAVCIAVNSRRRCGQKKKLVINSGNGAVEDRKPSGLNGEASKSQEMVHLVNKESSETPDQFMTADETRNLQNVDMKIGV
Binding to Phosphatidylinositol [2],Binding to PtdIns(4)P [PIP1] [2],"Binding to PtdIns(4,5)P [PIP2] [2]",Hyaluronate binding (fluorescence counts) [3],Heparin binding (fluorescence counts) [4],Molecule,CD169+ (AU) [1],"FITC-PIP2 fluorescence, Background Control [5]","FITC-PIP2 fluorescence, Ferric Iron [5]","FITC-PIP2 fluorescence, Zinc [5]",COL1 (Collagen-1A1 immunoreactivity in supernatant) [6],further results
—,—,+++,57.2 ± 5.7**,104.2 ± 22.0,N=C(N)NCCC[C@H](NC(=O)CNC(=O)[C@H](CCCCN)NC(=O)[C@H](CO)NC(=O)[C@@H]1CCCN1C(=O)[C@H](CCCNC(=N)N)NC(=O)[C@H](CS)NC(=O)[C@H](CCC(N)=O)NC(=O)[C@H](CCCCN)NC(=O)[C@H](CCCCN)NC(=O)[C@H](CCCCN)NC(=O)[C@H](Cc1ccc(O)cc1)NC(=O)[C@H](Cc1ccccc1)NC(=O)CNC(=O)[C@H](CCCCN)NC(=O)[C@@H](N)CCCCN)C(=O)N[C@@H](CCCCN)C(=O)N[C@@H](CCCNC(=N)N)C(=O)NCC(=O)N[C@@H](Cc1ccccc1)C(=O)N[C@@H](CS)C(=O)N[C@@H](Cc1c[nH]c2ccccc12)C(=O)O [imm3] (H-KKGFYKKKQCRPSKGRKRGFCW-OH),27.8 ± 3.0 AU,1.0 ± 0.8,26.2 ± 5.7**,4.7 ± 1.3**,101,CCL22 ([1]; culture supernatant): 55.3 ± 16.1 pg/mL
—,—,—,14.6 ± 22.6,6.8 ± 24.1,CC(C)C[C@H](NC(=O)[C@H](C)NC(=O)[C@@H]1CCCN1C(=O)[C@H](Cc1c[nH]cn1)NC(=O)[C@H](CS)NC(=O)[C@H](CCC(N)=O)NC(=O)[C@H](CCCCN)NC(=O)[C@@H]1CCCN1C(=O)[C@H](Cc1c[nH]cn1)NC(=O)[C@H](Cc1ccccc1)NC(=O)[C@H](CC(N)=O)NC(=O)CNC(=O)[C@H](CC(N)=O)NC(=O)[C@@H](N)CCCNC(=N)N)C(=O)N[C@@H](CC(=O)O)C(=O)NCC(=O)N[C@@H](CCC(N)=O)C(=O)N[C@@H](CCCNC(=N)N)C(=O)NCC(=O)N[C@@H](CCCCN)C(=O)N[C@@H](CS)C(=O)N[C@@H](Cc1c[nH]c2ccccc12)C(=O)O [imm4] (H-RNGNFHPKQCHPALDGQRGKCW-OH),3.8 ± 1.1 AU,,,,105,"Binding to PtdIns(3,4,5)P [PIP3] [2]: —"
—,,+++,60.0 ± 8.6**,95.1 ± 25.7,CC[C@H](C)[C@H](NC(=O)CNC(=O)[C@H](CCCNC(=N)N)NC(=O)[C@H](CCCCN)NC(=O)[C@H](CCCNC(=N)N)NC(=O)CNC(=O)[C@H](CCCNC(=N)N)NC(=O)[C@H](CO)NC(=O)[C@@H]1CCCN1C(=O)[C@H](CCCCN)NC(=O)[C@H](CS)NC(=O)[C@H](CCC(N)=O)NC(=O)[C@H](CCCCN)NC(=O)[C@H](CCCNC(=N)N)NC(=O)[C@H](CCCCN)NC(=O)[C@H](Cc1ccc(O)cc1)NC(=O)[C@H](Cc1ccccc1)NC(=O)CNC(=O)[C@H](CCCCN)NC(=O)[C@@H](N)CCCNC(=N)N)C(=O)N[C@@H](CS)C(=O)N[C@@H](Cc1c[nH]c2ccccc12)C(=O)O [imm5] (H-RKGFYKRKQCKPSRGRKRGICW-OH),36.5 ± 3.0 AU,1.8 ± 0.5,23.4 ± 3.5**,5.0 ± 1.2**,93,
,,,,,"Biotin-KKGFYKKKQCRPSKGRKRGFCWAVD (peptide, part only; not given: holotransferrin, not shown: large carriers, cysteine pairing not given here; also: non-covalent mixture/complex with holotransferrin, stoichiometry not given here) [immX3AVD + holoTf (immX3AVD peptide incubated with 10 ug/well holotransferrin)]",,,,,,CD44 immunoreactivity (AU) (AU (immX3AVD + 1.5 ug HMW-HA = 100)) [7]: 98.3; CD44 immunoreactivity (AU) (AU (immX3AVD + 1.5 ug HMW-HA = 100)) [8]: 103; CD44 immunoreactivity (AU) (AU (immX3AVD + 1.5 ug HMW-HA = 100)) [9]: 38.7; CD44 immunoreactivity (AU) (AU (immX3AVD + 1.5 ug HMW-HA = 100)) [10]: 94.8; CD44 immunoreactivity (AU) (AU (immX3AVD + 1.5 ug HMW-HA = 100)) [11]: 27.4; CD44 immunoreactivity (AU) (AU (immX3AVD + 1.5 ug HMW-HA = 100)) [12]: 12; CD44 immunoreactivity (AU) (AU (immX3AVD + 1.5 ug HMW-HA = 100)) [13]: 3.1; CD44 immunoreactivity (AU) (AU (immX3AVD + 1.5 ug HMW-HA = 100)) [14]: 107
,,,,,"Biotin-KKGFYKKKQCRPSKGRKRGFCWAVD (cysteine pairing not given here) [immX3AVD peptide (N-terminally biotinylated, bound to streptavidin-coated plate)]",,,,,,CD44 immunoreactivity (AU) (AU (immX3AVD + 1.5 ug HMW-HA = 100)) [15]: 13.2; CD44 immunoreactivity (AU) (AU (immX3AVD + 1.5 ug HMW-HA = 100)) [16]: 101; CD44 immunoreactivity (AU) (AU (immX3AVD + 1.5 ug HMW-HA = 100)) [17]: 105; CD44 immunoreactivity (AU) (AU (immX3AVD + 1.5 ug HMW-HA = 100)) [18]: 103; CD44 immunoreactivity (AU) (AU (immX3AVD + 1.5 ug HMW-HA = 100)) [19]: 100; CD44 immunoreactivity (AU) (AU (immX3AVD + 1.5 ug HMW-HA = 100)) [20]: 100; CD44 immunoreactivity (AU) (AU (immX3AVD + 1.5 ug HMW-HA = 100)) [21]: 103; CD44 immunoreactivity (AU) (AU (immX3AVD + 1.5 ug HMW-HA = 100)) [22]: 19.6
